Starred links: 1 amine or outer side, 2 acyl side, 3 side chain; linkers in the order of their positions; H or OH if unused. Positions of bridges follow the written chain, without caps; N, C: chain ends. Non-standard residues stand in square brackets, D forms with d. Residues, ends and D or L forms follow the SMILES beside them. Triazole bridges read from a SMILES are 1,4-linked. NMeW = CN[C@@H](Cc1c[nH]c2ccccc12)C(=O)O; Lys(N3) = [N-]=[N+]=NCCCC[C@H](N)C(=O)O; Phe(4-NH2) = Nc1ccc(C[C@H](N)C(=O)O)cc1; NMeR = CN[C@@H](CCCNC(=N)N)C(=O)O; Suc = O=C(CCC(=O)[*:2])[*:1]; dPra = C#CC[C@@H](N)C(=O)O; Nle = CCCC[C@H](N)C(=O)O; Pra = C#CC[C@H](N)C(=O)O; Dab = NCC[C@H](N)C(=O)O
The compounds below were run against T1, human recombinant MC1R (Homo sapiens, UniProt Q01726) (assay: cyclic AMP (cAMP) functional assay, MC1R stable cell line (CHO-K1)). Details: cAMP functional assay.
T1 construct: host or cells: CHO-K1
Format: cell-based
Experimental: The cyclic AMP (cAMP) functional assay was performed on a human recombinant MC1R stable cell line (CHO-K1, GenScript). The cells were cultured at 37° C. and 5% CO2 with culture medium (90% Ham's F-12K (Kaighn's)+10% FBS+400 μg/mL G418). […] Then, 100 nL of compounds were transferred to the assay plate by the Echo machine. Cells were washed with PBS and then detached by incubation with 0.05% (w/v) Trypsin EDTA at 37° C. for 2 to 5 mins. Cells were collected with stimulation buffer (1×HBSS with 5 mM HEPES+0.2 mM IBMX+0.1% BSA) and 10 ul of cells (the density of 2,500 cells/well) solution was transferred to assay plate, centrifuged at 600 rpm for 3 min and then incubated with compounds at room temperature for 60 min. After that, 5 μL 4×Eu-cAMP tracer solution and 5 μL 4×ULight™-anti-cAMP solution was added into the cells, centrifuged at 600 rpm for 3 min and incubated for 60 min. The cAMP signal was detected with Envision® Multimode Plate Reader (PerkinElmer).

T1 sequence (Q01726 whole entry): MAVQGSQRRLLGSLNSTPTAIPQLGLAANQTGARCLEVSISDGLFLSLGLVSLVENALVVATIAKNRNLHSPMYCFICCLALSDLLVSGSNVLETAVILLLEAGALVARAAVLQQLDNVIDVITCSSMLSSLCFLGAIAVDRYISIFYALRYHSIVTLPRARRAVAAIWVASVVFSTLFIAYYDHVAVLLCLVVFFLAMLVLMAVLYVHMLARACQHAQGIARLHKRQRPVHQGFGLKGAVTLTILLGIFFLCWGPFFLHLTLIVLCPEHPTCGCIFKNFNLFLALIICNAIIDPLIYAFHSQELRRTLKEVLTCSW

| Structure (SMILES) | IC50 |
| --- | --- |
| CCCC[C@@H]1NC(=O)CSC[C@@H](C(N)=O)NC(=O)[C@H](CCCCN)NC(=O)CNC(=O)[C@H](Cc2c[nH]c3ccccc23)NC(=O)[C@H](CCCNC(=N)N)NC(=O)[C@H](Cc2ccccc2)NC(=O)[C@H](Cc2c[nH]cn2)NC(=O)[C@H](CCC(=O)O)NC1=O [KR-036] ({CH2CO}-[Nle]EHFRWGKC-NH2; thioether N-9) | 880 pM |
| CCCC[C@H](NC(C)=O)C(=O)N[C@H]1CCCCn2cc(nn2)C[C@@H](C(N)=O)NC(=O)[C@H](Cc2c[nH]c3ccccc23)N(C)C(=O)[C@H](CCCNC(=N)N)N(C)C(=O)[C@@H](Cc2ccccc2)NC(=O)[C@H](Cc2c[nH]cn2)NC1=O [KR-050, Ac-Nle-[Lys(N3)-His-DPhe-NMeArg-NMeTrp-Pra]-NH2] (Ac-[Nle][Lys(N3)]H[dF][NMeR][NMeW][Pra]-NH2; triazole 2-7) | 81 pM |
| CSCC[C@H](NC(=O)[C@H](CO)NC(=O)[C@H](Cc1ccc(O)cc1)NC(=O)[C@H](CO)NC(C)=O)C(=O)N[C@@H](CCC(=O)O)C(=O)N[C@@H](Cc1c[nH]cn1)C(=O)N[C@@H](Cc1ccccc1)C(=O)N[C@@H](CCCNC(=N)N)C(=O)N[C@@H](Cc1c[nH]c2ccccc12)C(=O)NCC(=O)N[C@@H](CCCCN)C(N)=O [KR-006] | 110 pM |
| CCCC[C@H](NC(C)=O)C(=O)N[C@H]1Cc2cn(nn2)CCCC[C@@H](C(=O)N[C@@H](CCCCN)C(N)=O)NC(=O)[C@H](Cc2c[nH]c3ccccc23)NC(=O)[C@H](CCCNC(=N)N)NC(=O)[C@@H](Cc2ccccc2)NC(=O)[C@H](Cc2c[nH]cn2)NC1=O [KR-067, Ac-Nle-[Pra-His-DPhe-Arg-Trp-Lys(N3)]-Lys-NH2] (Ac-[Nle][Pra]H[dF]RW[Lys(N3)]K-NH2; triazole 2-7) | 110 pM |
| CCCC[C@H](NC(C)=O)C(=O)N[C@H]1CSCc2cccc(c2)CSC[C@@H](C(=O)N[C@@H](Cc2c[nH]c3ccccc23)C(N)=O)NC(=O)[C@H](CCCNC(=N)N)NC(=O)[C@@H](Cc2ccccc2)NC(=O)[C@H](Cc2c[nH]cn2)NC1=O [KR-032, Ac-Nle-cyc(Cys-His-DPhe-Arg-Cys)-Trp, L: m-xylene-NH2] | 81 pM |
| CSCC[C@H](NC(=O)[C@H](CO)NC(=O)[C@H](Cc1ccc(O)cc1)NC(=O)[C@H](CO)NC(C)=O)C(=O)N[C@@H](CCC(=O)O)C(=O)N[C@@H](Cc1c[nH]cn1)C(=O)N[C@@H](Cc1ccccc1)C(=O)N[C@@H](CCCNC(=N)N)C(=O)N(C)[C@@H](Cc1c[nH]c2ccccc12)C(=O)NCC(=O)N[C@@H](CCCCN)C(=O)N1CCC[C@H]1C(=O)N[C@H](C(N)=O)C(C)C [KR-024] | 880 pM |

Other lines, results leading:

| IC50 | Structure (SMILES) |
| --- | --- |
| > 50000 pM | CCCC[C@H](NC(C)=O)C(=O)N[C@H]1CCCCn2cc(nn2)C[C@@H](C(N)=O)NC(=O)[C@H](Cc2c[nH]c3ccccc23)NC(=O)[C@H](CCCNC(=N)N)NC(=O)[C@@H](Cc2ccccc2)NC(=O)[C@H](Cc2ccc(N)cc2)NC1=O [KR-047, Ac-Nle-[Lys(N3)-Phe(4-NH2)-DPhe-Arg-Trp-Pra]-NH2] (Ac-[Nle][Lys(N3)][Phe(4-NH2)][dF]RW[Pra]-NH2; triazole 2-7) |
| 160 pM | CCCC[C@H](NC(C)=O)C(=O)N[C@H]1CCn2cc(nn2)COCc2cn(nn2)CC[C@@H](C(N)=O)NC(=O)[C@H](Cc2c[nH]c3ccccc23)NC(=O)[C@H](CCCNC(=N)N)NC(=O)[C@@H](Cc2ccccc2)NC(=O)[C@H](Cc2c[nH]cn2)NC1=O [KR-042, Ac-Nle-[Dab(N3)-His-DPhe-Arg-Trp-Dab(N3)] linkr: 3,3′-Oxybis[1-propyne]-NH2] |
| 24 pM | CCCC[C@H](NC(C)=O)C(=O)N[C@H]1CCCCn2cc(nn2)C[C@@H](C(=O)N[C@@H](CCCCN)C(N)=O)NC(=O)[C@H](Cc2c[nH]c3ccccc23)NC(=O)[C@H](CCCNC(=N)N)NC(=O)[C@@H](Cc2ccccc2)NC(=O)[C@H](Cc2c[nH]cn2)NC1=O [KR-037, Ac-Nle-[Lys(N3)-His-DPhe-Arg-Trp-Pra]-Lys-NH2] (Ac-[Nle][Lys(N3)]H[dF]RW[Pra]K-NH2; triazole 2-7) |
| 40 pM | CCCC[C@H](NC(C)=O)C(=O)N[C@H]1CCNC(=O)CCC(=O)NCC[C@@H](C(N)=O)NC(=O)[C@H](Cc2c[nH]c3ccccc23)NC(=O)[C@H](CCCNC(=N)N)NC(=O)[C@@H](Cc2ccccc2)NC(=O)[C@H](Cc2c[nH]cn2)NC1=O [KR-041, Ac-Nle-[Dab-His-DPhe-Arg-Trp-Dab] Linker: succinic acid-NH2] (Ac-[Nle][Dab]H[dF]RW[Dab]-NH2; linker 2-7 via Suc (inferred)) |

The compounds below were run against T2, human recombinant MC4R (Homo sapiens, UniProt P32245) (assay: Ca2+ signalling functional assay, MC4R stable cell line (CHO-K1/Gα15)). Details: calcium flux functional assay.
T2 construct: host or cells: CHO-K1/Gα15
Format: cell-based
Experimental: The Ca^2+ signalling functional assay was performed on a human recombinant MC4R stable cell line (CHO-K1/Gα15, GenScript). The cells were cultured at 37° C. and 5% CO2 with culture medium (90% Ham's F-12K (Kaighn's)+10% FBS+8 μg/mL Puromycin+100 μg/mL Hygromycin B). Cells were washed with PBS and then detached by incubation with 0.05% (w/v) Trypsin EDTA at 37° C. for 2-5 mins. Detached cells were suspended in Ham's F-12K (Kaighn's) (containing 10% FBS) and a 50 μL cell suspension was seeded into each well of a 384-well assay plate at a density of 15,000 cells/well. Cells were allowed to settle overnight at 37° C., 5% CO2. The next day, the assay plate was centrifuged and the media was replaced with dye (1×) in assay buffer (containing HBSS, HEPES 20 mM and probenecid 1 mM) and incubated for 1 h at 37° C. […] Then, 100 nL of compounds were transferred to the compound plate by the Echo machine. 30 μL assay buffer was added to the compounds plate and then shaken for 20 to 40 minutes. The plates were placed on the FLIPR and 15 μL of the compound was added to each well, then calcium flux signal was measured.

T2 sequence (P32245 whole entry): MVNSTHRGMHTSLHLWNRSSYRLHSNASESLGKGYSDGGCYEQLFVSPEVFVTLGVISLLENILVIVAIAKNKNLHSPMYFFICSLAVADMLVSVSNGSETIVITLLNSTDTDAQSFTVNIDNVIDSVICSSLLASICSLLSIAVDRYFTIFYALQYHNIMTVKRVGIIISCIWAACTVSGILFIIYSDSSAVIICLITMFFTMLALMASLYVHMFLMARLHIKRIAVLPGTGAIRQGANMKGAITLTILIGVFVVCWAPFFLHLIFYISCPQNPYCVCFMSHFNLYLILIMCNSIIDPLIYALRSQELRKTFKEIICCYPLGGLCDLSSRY

| Structure (SMILES) | IC50 |
| --- | --- |
| CCCC[C@H](NC(C)=O)C(=O)N[C@H]1CCCCn2cc(nn2)C[C@H](C(=O)N[C@@H](CCCCN)C(N)=O)NC(=O)[C@H](Cc2c[nH]c3ccccc23)NC(=O)[C@H](CCCNC(=N)N)NC(=O)[C@@H](Cc2ccccc2)NC(=O)[C@H](Cc2c[nH]cn2)NC1=O [KR-070, Ac-Nle-[Lys(N3)-His-DPhe-Arg-Trp-DPra]-Lys-NH2] (Ac-[Nle][Lys(N3)]H[dF]RW[dPra]K-NH2; triazole 2-7) | 84100 pM |
| CCCC[C@H](NC(C)=O)C(=O)N1CCC(=O)NCC[C@@H](C(=O)N[C@@H](Cc2c[nH]c3ccccc23)C(N)=O)NC(=O)[C@H](CCCNC(=N)N)NC(=O)[C@@H](Cc2ccccc2)NC(=O)[C@H](Cc2c[nH]cn2)NC(=O)C1 [KR-027, Ac-Nle-cyc(NGlu-His-DPhe-Arg-Dab)-Trp-NH2] | 84100 pM |
